Assay results as given in US12084420B2, “Indoline compounds for inhibiting KIF18A” (Volastra Therapeutics, Inc., priority 2021, dated 2024).
pIC50: −log10 of the molar value.

Biological target: hKIF18A (1-374) (Homo sapiens (Human), UniProt Q8NI77)
Assay: Inhibition of KIF18A microtubule-dependent ATPase activity (ADP-Glo)
Conditions: KIF18A microtubule-dependent ATPase activity, biochemical assay

hKIF18A (1-374), sequence (Q8NI77 whole entry, looked up): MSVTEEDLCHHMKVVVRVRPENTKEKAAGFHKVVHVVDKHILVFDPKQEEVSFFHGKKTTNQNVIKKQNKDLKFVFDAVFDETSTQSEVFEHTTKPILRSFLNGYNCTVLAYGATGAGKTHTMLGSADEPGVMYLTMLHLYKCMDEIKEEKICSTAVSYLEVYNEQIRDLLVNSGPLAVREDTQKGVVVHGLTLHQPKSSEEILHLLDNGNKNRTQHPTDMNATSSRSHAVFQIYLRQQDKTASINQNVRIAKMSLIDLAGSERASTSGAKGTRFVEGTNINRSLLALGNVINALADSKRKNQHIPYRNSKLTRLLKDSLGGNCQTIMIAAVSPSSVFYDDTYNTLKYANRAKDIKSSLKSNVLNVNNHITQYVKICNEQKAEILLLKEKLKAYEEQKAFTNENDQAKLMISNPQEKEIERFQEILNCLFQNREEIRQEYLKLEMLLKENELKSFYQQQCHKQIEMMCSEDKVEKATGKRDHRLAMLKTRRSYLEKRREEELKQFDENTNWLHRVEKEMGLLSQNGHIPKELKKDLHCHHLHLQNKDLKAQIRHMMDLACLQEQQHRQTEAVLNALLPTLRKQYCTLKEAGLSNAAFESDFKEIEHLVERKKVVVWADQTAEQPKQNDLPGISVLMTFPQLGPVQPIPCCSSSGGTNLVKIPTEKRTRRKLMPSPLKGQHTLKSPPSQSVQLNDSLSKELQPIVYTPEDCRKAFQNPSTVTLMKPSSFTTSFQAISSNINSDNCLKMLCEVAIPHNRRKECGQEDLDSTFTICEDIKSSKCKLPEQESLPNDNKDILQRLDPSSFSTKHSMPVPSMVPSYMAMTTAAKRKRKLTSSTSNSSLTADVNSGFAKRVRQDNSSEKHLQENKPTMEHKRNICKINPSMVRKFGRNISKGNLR
hKIF18A (1-374), sequence (Q2XVP4 whole entry partner, looked up): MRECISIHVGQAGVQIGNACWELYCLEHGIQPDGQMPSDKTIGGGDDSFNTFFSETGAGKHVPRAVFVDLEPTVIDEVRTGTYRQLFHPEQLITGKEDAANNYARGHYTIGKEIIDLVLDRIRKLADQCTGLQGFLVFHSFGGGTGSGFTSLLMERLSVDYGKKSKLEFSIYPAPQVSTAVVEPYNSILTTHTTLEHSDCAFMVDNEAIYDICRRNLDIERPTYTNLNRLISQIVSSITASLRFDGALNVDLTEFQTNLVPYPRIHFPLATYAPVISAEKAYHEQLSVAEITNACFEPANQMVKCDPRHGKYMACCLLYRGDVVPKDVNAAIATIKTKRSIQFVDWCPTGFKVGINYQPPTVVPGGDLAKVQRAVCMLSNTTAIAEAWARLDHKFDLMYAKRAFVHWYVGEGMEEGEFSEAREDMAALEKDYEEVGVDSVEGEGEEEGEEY
hKIF18A (1-374), sequence (P02554 whole entry partner, looked up): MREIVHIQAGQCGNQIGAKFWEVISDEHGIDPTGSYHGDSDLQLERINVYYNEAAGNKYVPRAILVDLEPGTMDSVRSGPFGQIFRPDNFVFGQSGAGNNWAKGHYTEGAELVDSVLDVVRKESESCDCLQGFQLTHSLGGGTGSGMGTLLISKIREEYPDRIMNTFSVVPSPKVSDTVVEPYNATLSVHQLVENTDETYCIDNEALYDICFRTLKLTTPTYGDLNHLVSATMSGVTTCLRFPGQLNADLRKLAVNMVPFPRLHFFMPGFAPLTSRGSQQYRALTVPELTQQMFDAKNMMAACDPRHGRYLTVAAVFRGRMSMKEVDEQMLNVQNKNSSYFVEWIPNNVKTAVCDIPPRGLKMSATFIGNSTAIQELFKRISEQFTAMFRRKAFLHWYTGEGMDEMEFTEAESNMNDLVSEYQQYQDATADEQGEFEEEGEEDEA

| Structure (SMILES) | pIC50 |
| --- | --- |
| CS(=O)(=O)Nc1ccc2c(c1)C1(CCC3(CC3)CC1)CN2C(=O)c1cc(C(O)C2CCCC2)cs1 (stereo not drawn) [Compound 364, N-(1″-(4-(cyclopentyl(hydroxy)methyl)thiophene-2-carbonyl)dispiro[cyclopropane-1,1′-cyclohexane-4′,3″-indolin]-5″- yl)methanesulfonamide] | 8.29 |
| CC(C)(C)CC(O)c1cccc(C(=O)N2CC3(CCC4(CC4)CC3)c3cc(NS(C)(=O)=O)ccc32)c1 (stereo not drawn) [Compound 357, N-(1″-(3-(1-hydroxy-3,3-dimethylbutyl)benzoyl)dispiro[cyclopropane-1,1′-cyclohexane-4′,3″-indolin]-5″-yl)methanesulfonamide] | 7.96 |
| Cc1cc(C(=O)N2CC3(CCC4(CC4)CC3)c3cc(NS(C)(=O)=O)ccc32)nc(CN2CCC(F)(F)CC2)n1 [Compound 343, N-(1″-(2-((4,4-difluoropiperidin-1-yl)methyl)-6-methylpyrimidine-4-carbonyl)dispiro[cyclopropane-1,1′-cyclohexane-4′,3″-indolin]-5″- yl)methanesulfonamide] | 6.09 |
| COc1ccc(C(=O)N2CC3(CCC4(CC4)CC3)c3cc(NS(C)(=O)=O)ccc32)cc1S(=O)(=O)NC12CC(C1)C2 [Compound 311, N-(bicyclo[1.1.1]pentan-1-yl)-2-methoxy-5-(5″-(methylsulfonamido)dispiro[cyclopropane-1,1′-cyclohexane-4′,3″-indoline]-1″- carbonyl)benzenesulfonamide] | 8.28 |
| CCOC(=O)Nc1ccc2c(c1)C1(CCCCC1)CN2C(=O)c1cccc(S(=O)(=O)N2CCCCC2)c1 [Compound 141, ethyl (1′-(3-(piperidin-1-ylsulfonyl)benzoyl)spiro[cyclohexane-1,3′-indolin]-5′-yl)carbamate] | 5.96 |
| CC(NS(=O)(=O)c1cccc(C(=O)N2CC3(CCC4(CC4)CC3)c3cc(NS(C)(=O)=O)ccc32)c1)C1CCC1 (stereo not drawn) [Compound 184, N-(1-cyclobutylethyl)-3-(5″- (methylsulfonamido)dispiro[cyclopropane-1,1′-cyclohexane-4′,3″-indoline]-1″-carbonyl)benzenesulfonamide] | 7.48 |
| CC(c1cccc(C(=O)N2CC3(CCC4(CC4)CC3)c3cc(NS(C)(=O)=O)ccc32)c1)N1CCC(F)(F)CC1 (stereo not drawn) [Compound 341, N-(1″-(3-(1-(4,4-difluoropiperidin-1-yl)ethyl)benzoyl)dispiro[cyclopropane-1,1′-cyclohexane-4′,3″-indolin]-5″-yl)methanesulfonamide] | 7.60 |
| CC(C)(C)NS(=O)(=O)c1cccc(C(=O)N2CC3(CC=CC3)c3cc(NS(C)(=O)=O)ccc32)c1 [Compound 243, N-(tert-butyl)-3-(5′-(methylsulfonamido)spiro[cyclopentane-1,3′-indolin]-3-en-1′-carbonyl)benzenesulfonamide] | 6.85 |
| CCC(CC)NS(=O)(=O)c1cccc(C(=O)N2CC3(CCC4(CC4)CC3)c3cc(NS(C)(=O)=O)ccc32)c1 [Compound 198, 3-(5″- (methylsulfonamido)dispiro[cyclopropane-1,1′-cyclohexane-4′,3″-indoline]-1″-carbonyl)-N-(pentan-3-yl)benzenesulfonamide] | 7.59 |
| CCS(=O)(=O)Nc1ccc2c(c1)C1(CCC3(CC3)CC1)CN2C(=O)c1cccc(S(=O)(=O)NC2CC(F)(F)C2)c1 [Compound 293, N-(3,3-difluorocyclobutyl)-3-(5″- (ethylsulfonamido)dispiro[cyclopropane-1,1′-cyclohexane-4′,3″-indoline]-1″- carbonyl)benzenesulfonamide] | 7.77 |
| CC(C)(C)NS(=O)(=O)c1cc(C(=O)N2CC3(CCC4(CC4)CC3)c3cc(NS(=O)(=O)CCO)ccc32)cs1 [Compound 274, N-(tert-butyl)-4-(5″-((2-hydroxyethyl)sulfonamido)dispiro [cyclopropane-1,1′-cyclohexane-4′,3″- indoline]-1″-carbonyl)thiophene-2-sulfonamide] | 8.22 |
| CC(C)(C)NS(=O)(=O)c1csc(C(=O)N2CC3(CCC4(CC4)CC3)c3cc(NS(C)(=O)=O)ccc32)c1 [Compound 268, N-(tert-butyl)-5-(5″- (methylsulfonamido)dispiro[cyclopropane-1,1′-cyclohexane-4′,3″-indoline]-1″-carbonyl)thiophene-3-sulfonamide] | 7.11 |
| O=C(c1cccc(S(=O)(=O)N2CCCCC2)c1)N1CC2(CCCC2)c2c(F)cccc21 [Compound 1′, (4′-fluorospiro[cyclopentane-1,3′-indolin]-1′-yl)(3-(piperidin-1-ylsulfonyl)phenyl)methanone] | 5.59 |
| CC1CCC2(C1)CN(C(=O)c1cccc(S(=O)(=O)NC(C)(C)C)c1)c1ccc(NS(C)(=O)=O)cc12 (stereo not drawn) [Compound 252, N-(tert-butyl)-3-(3-methyl-5′-(methylsulfonamido)spiro[cyclopentane-1,3′-indoline]-1′-carbonyl)benzenesulfonamide] | 7.47 |
| CC(C)(C)NS(=O)(=O)c1ccc(C(=O)N2CC3(CCCCC3)c3cc(NS(C)(=O)=O)ccc32)s1 [Compound 60, N-(tert-butyl)-5-(5′-(methylsulfonamido)spiro[cyclohexane-1,3′-indoline]-1′-carbonyl)thiophene-2-sulfonamide] | 5.92 |
| CS(=O)(=O)Nc1ccc2c(c1)C1(CCC3(CC3)CC1)CN2C(=O)c1cccc(CN2C[C@@H]3[C@H](C2)C3(F)F)c1 [Compound 358, N-(1″-(3-((6,6-difluoro-3-azabicyclo[3.1.0]hexan-3-yl)methyl)benzoyl)dispiro[cyclopropane-1,1′-cyclohexane-4′,3″-indolin]-5″- yl)methanesulfonamide] | 7.55 |
| CS(=O)(=O)Nc1ccc2c(c1)C1(CCC3(CC3)CC1)CN2C(=O)c1csc(S(=O)(=O)NC2CCC2)c1 [Compound 291, N-cyclobutyl-4-(5″- (methylsulfonamido)dispiro[cyclopropane-1,1′-cyclohexane-4′,3″-indoline]-1″-carbonyl)thiophene-2-sulfonamide] | 8.24 |
| CCN(c1ccc2c(c1)C1(CCC3(CC3)CC1)CN2C(=O)c1cccc(S(=O)(=O)N2CCC(F)(F)CC2)c1)S(C)(=O)=O [Compound 32, N-(1″-(3-((4,4-difluoropiperidin-1-yl)sulfonyl)benzoyl)dispiro[cyclopropane-1,1′-cyclohexane-4′,3″-indolin]-5″- yl)-N-ethylmethanesulfonamide] | 7.11 |
| CS(=O)(=O)Nc1ccc2c(c1)C1(CCC3(CC3)CC1)CN2C(=O)c1cccc(NC2CCCC2)c1 [Compound 347, N-(1″-(3-(cyclopentylamino)benzoyl)dispiro [cyclopropane-1,1′-cyclohexane-4′,3″- indolin]-5″-yl)methanesulfonamide] | 6.55 |
| CC1CCC(NS(=O)(=O)c2cccc(C(=O)N3CC4(CCC5(CC5)CC4)c4cc(NS(C)(=O)=O)ccc43)c2)C1 (stereo not drawn) [Compound 285, N-(3-methylcyclopentyl)-3-(5″- (methylsulfonamido)dispiro[cyclopropane-1,1′-cyclohexane-4′,3″-indoline]-1″-carbonyl)benzenesulfonamide] | 7.96 |
| C[C@@H](c1cccc(C(=O)N2CC3(CCC4(CC4)CC3)c3cc(NS(C)(=O)=O)ccc32)c1)N1CCC(F)(F)CC1 (single isomer, unassigned) [Compound 341a] | 7.52 |
| O=C(c1cccc(S(=O)(=O)N2CCCCC2)c1)N1CC2(CCC3(CC3)CC2)c2ccccc21 [Compound 6, dispiro[cyclopropane-1,1′-cyclohexane-4′,3″-indolin]-1″-yl(3-(piperidin-1-ylsulfonyl)phenyl)methanone] | 6.24 |
| CS(=O)(=O)Nc1ccc2c(c1)C1(CCCCC1)CN2C(=O)c1cccc(S(=O)(=O)NC2CC2)c1 [Compound 46, N-cyclopropyl-3-(5′-(methylsulfonamido)spiro[cyclohexane-1,3′-indoline]-1′-carbonyl)benzenesulfonamide] | 6.92 |
| CC(C)C(C)NS(=O)(=O)c1cccc(C(=O)N2CC3(CCC4(CC4)CC3)c3cc(NS(C)(=O)=O)ccc32)c1 (stereo not drawn) [Compound 210, N-(3-methylbutan-2-yl)-3-(5″- (methylsulfonamido)dispiro[cyclopropane-1,1′-cyclohexane-4′,3″-indoline]-1″-carbonyl)benzenesulfonamide] | 7.80 |
| CC(C)(C)[C@@H](O)c1ccc(C(=O)N2CC3(CCC4(CC4)CC3)c3cc(NS(C)(=O)=O)ccc32)o1 (single isomer, unassigned) [Compound 373a] | 6.70 |
| CS(=O)(=O)Nc1ccc2c(c1)C1(CCC3(CC3)CC1)CN2C(=O)c1cccc(C(=O)C2CCCC2)c1 [Compound 164, N-(1″-(3-(cyclopentanecarbonyl)benzoyl)dispiro[cyclopropane-1,1′-cyclohexane-4′,3″- indolin]-5″-yl)methanesulfonamide] | 6.92 |
| C=CCC1CC1NS(=O)(=O)c1cccc(C(=O)N2CC3(CCC4(CC4)CC3)c3cc(NS(C)(=O)=O)ccc32)c1 (stereo not drawn) [Compound 235, N-(2-allylcyclopropyl)-3-(5″- (methylsulfonamido)dispiro[cyclopropane-1,1′-cyclohexane-4′,3″-indoline]-1″-carbonyl)benzenesulfonamide] | 7.66 |
| CS(=O)(=O)Nc1ccc2c(c1)C1(CCC3(CC3)CC1)CN2C(=O)c1csc(S(=O)(=O)N2CCC(F)(F)CC2)c1 [Compound 281, N-(1″-(5-((4,4-difluoropiperidin-1-yl)sulfonyl)thiophene-3-carbonyl)dispiro[cyclopropane-1,1′-cyclohexane-4′,3″-indolin]-5″- yl)methanesulfonamide] | 7.89 |
| CS(=O)(=O)Nc1ccc2c(c1)C1(CCC3(CC3)CC1)CN2C(=O)c1ccnc(C(O)C2CCCC2)c1 (stereo not drawn) [Compound 316, N-(1″-(2-(cyclopentyl(hydroxy)methyl)isonicotinoyl)dispiro[cyclopropane-1,1′-cyclohexane-4′,3″-indolin]-5″- yl)methanesulfonamide] | 7.74 |
| CC1(C)OCC1NS(=O)(=O)c1cccc(C(=O)N2CC3(CCC4(CC4)CC3)c3cc(NS(C)(=O)=O)ccc32)c1 (stereo not drawn) [Compound 188, N-(2,2-dimethyloxetan-3-yl)-3-(5″- (methylsulfonamido)dispiro[cyclopropane-1,1′-cyclohexane-4′,3″-indoline]-1″-carbonyl)benzenesulfonamide] | 7.12 |
